Source: patent publication US20050267156A1, “Broadspectrum 2-amino-benzothiazole sulfonamide hiv protease inhibitors” (Tibotec Pharmaceuticals Ltd., priority 2002, published 2005)
Read-outs that look alike come from different tables or passages of the source.

What was measured:
[1] = test system: HIV-1 strain LAI; experiment: Cellular anti-HIV assay (MT4/MTT), wild type; format: cell-based; settings: wild type HIV-1 strain LAI, MT4 cells; for EC50: Human immunodeficiency virus 1, read-out: WT (pEC50) (converted)
[2] = test system: mutant HIV strain A; experiment: microbe, parasite or virus in culture; format: cell-based; settings: for fold resistance Strain A: FR=EC50 (mutant strain)/EC50 (HIV-1 strain LAI); for pEC50 Strain A: mutant HIV strain A, MT4 cells; for EC50: Human immunodeficiency virus 1, MT4, read-out: pEC50 Strain A, mutant HIV strain A, MT4 cells (converted)
[3] = test system: mutant HIV strain B; experiment: microbe, parasite or virus in culture; format: cell-based; settings: for fold resistance Strain B: FR=EC50 (mutant strain)/EC50 (HIV-1 strain LAI); for pEC50 Strain B: mutant HIV strain B, MT4 cells; for EC50: Human immunodeficiency virus 1, MT4, read-out: pEC50 Strain B, mutant HIV strain B, MT4 cells (converted)
[4] = test system: mutant HIV strain F; experiment: microbe, parasite or virus in culture; format: cell-based; settings: for fold resistance Strain F: FR=EC50 (mutant strain)/EC50 (HIV-1 strain LAI); for pEC50 Strain F: mutant HIV strain F, MT4 cells; for EC50: Human immunodeficiency virus 1, MT4, read-out: pEC50 Strain F, mutant HIV strain F, MT4 cells (converted)
[5] = test system: mutant HIV strain C; experiment: microbe, parasite or virus in culture; format: cell-based; settings: for fold resistance Strain C: FR=EC50 (mutant strain)/EC50 (HIV-1 strain LAI); for pEC50 Strain C: mutant HIV strain C, MT4 cells; for EC50: Human immunodeficiency virus 1, MT4, read-out: pEC50 Strain C, mutant HIV strain C, MT4 cells (converted)
[6] = test system: mock-infected MT4 cells; experiment: Toxicity on mock-infected cells (MTT); format: cell-based
[7] = test system: mutant HIV strain E; experiment: microbe, parasite or virus in culture; format: cell-based; settings: for fold resistance Strain E: FR=EC50 (mutant strain)/EC50 (HIV-1 strain LAI); for pEC50 Strain E: mutant HIV strain E, MT4 cells; for EC50: Human immunodeficiency virus 1, MT4, read-out: pEC50 Strain E, mutant HIV strain E, MT4 cells (converted)
[8] = test system: mutant HIV strain D; experiment: microbe, parasite or virus in culture; format: cell-based; settings: for fold resistance Strain D: FR=EC50 (mutant strain)/EC50 (HIV-1 strain LAI); for pEC50 Strain D: mutant HIV strain D, MT4 cells; for EC50: Human immunodeficiency virus 1, MT4, read-out: pEC50 Strain D, mutant HIV strain D, MT4 cells (converted)
[9] = Pharmacokinetics in rats; format: in vivo, Whistar rats; settings: rat
Experimental: (§1) The pharmacokinetic properties of some compounds of formula (I) were tested on rats and dogs. The compounds were evaluated in Whistar rats, source Iffa Credo, weighing approximately 350 g. Before dosing the animals were fasted overnight (approximately 12 h fasting period). The compounds were dissolved in DMSO or PEG 400. The results represented in the table concern the results from the oral or intra-peritoneal dosing of the compounds. Blood was sampled at 30 min, 1 h, 2 h, 3 h, no pre-dose sample was taken. The amount of the compound in the biological sample was determined using LC-MS. In the table below “or” means oral dosing, “ip” means intraperitoneal dosing, “mpk” means mg per kilogram.

[10] = Toxicity on mock-infected cells (MTT); format: cell-based; settings: human
[11] = Pharmacokinetics in dogs; format: in vivo; settings: or, dog, results normalized to 10 mpk
Experimental: as §1

[12] = Whistar, blood, ip, 10 mpk, ip, DMSO, results normalized to 10 mpk, read-out: Cmax
[13] = ip, DMSO, results normalized to 10 mpk
[14] = or, PEG400, results normalized to 10 mpk

Compound: CNc1nc2ccc(S(=O)(=O)N(CC(C)C)C[C@@H](O)[C@H](Cc3ccccc3)NC(=O)O[C@H]3CO[C@H]4OCC[C@H]43)cc2s1 [Compound 5, {(1S,2R)-1-benzyl-2-hydroxy-3-[isobutyl-(2-methylamino-benzothiazole-6-sulfonyl)-amino]-propyl}-carbamic acid(3R,3aS,6aR)-(hexahydro-furo[2,3-b]furan-3-yl)ester]
- WT (pEC50) [1]: 9.26
- fold resistance Strain A [2]: 0.8
- pEC50 Strain A [2]: 9.37
- fold resistance Strain B [3]: 0.5
- pEC50 Strain B [3]: 9.57
- fold resistance Strain F [4]: 3.5
- pEC50 Strain F [4]: 8.71
- fold resistance Strain C [5]: 0.4
- pEC50 Strain C [5]: 9.71
- Tox (pCC50) [6]: 4.15

Compound: CC(C)CN(C[C@@H](O)[C@H](Cc1ccccc1)NC(=O)O[C@H]1CCOC1)S(=O)(=O)c1ccc2nc(N)sc2c1 [Compound 13, {(1S,2R)-3-[(2-amino-benzothiazole-6-sulfonyl)-isobutyl-amino]-1-benzyl-2-hydroxypropyl}-carbamic acid(S) (tetrahydro-furan-3-yl)ester]
- WT (pEC50) [1]: 8.52
- fold resistance Strain A [2]: 13.5
- pEC50 Strain A [2]: 7.39
- fold resistance Strain B [3]: 1.9
- pEC50 Strain B [3]: 8.24
- fold resistance Strain F [4]: 34.7
- pEC50 Strain F [4]: 6.98
- fold resistance Strain E [7]: 0.9
- pEC50 Strain E [7]: 8.57
- fold resistance Strain D [8]: 2.5
- pEC50 Strain D [8]: 8.13
- fold resistance Strain C [5]: 1.3
- pEC50 Strain C [5]: 8.42
- Tox (pCC50) [6]: <4

Compound: CNc1nc2ccc(S(=O)(=O)N(CC(C)C)C[C@@H](O)[C@H](Cc3ccccc3)NC(=O)COc3c(C)cccc3C)cc2s1 [Compound 15, N-{(1S,2R)-1-benzyl-2-hydroxy-3-[isobutyl-(2-methylamino-benzothiazole-6-sulfonyl)-amino]-propyl}-2-(2,6-dimethyl-phenoxy)-acetamide]
- Cmax [9, 12]: 86 ng/mL
- Cmax ([9]; Whistar, blood, po, 10 mpk, or, PEG400, results normalized to 10 mpk, read-out: Cmax): 10 ng/mL
- EC50 [1]: 0.0112 µM
- fold resistance Strain A [2]: 4.6
- EC50 [2]: 0.0513 µM
- fold resistance Strain B [3]: 2.6
- EC50 [3]: 0.0288 µM
- fold resistance Strain F [4]: 20.4
- EC50 [4]: 0.229 µM
- fold resistance Strain E [7]: 3.2
- EC50 [7]: 0.0363 µM
- fold resistance Strain D [8]: 4.5
- EC50 [8]: 0.0501 µM
- fold resistance Strain C [5]: 3.5
- EC50 [5]: 0.0398 µM
- CC50 at 5 days [10]: 91.2 µM

Compound: CNc1nc2ccc(S(=O)(=O)N(CC(C)C)C[C@@H](O)[C@H](Cc3ccccc3)NC(=O)O[C@H]3CCOC3)cc2s1 [Compound 21, {(1S,2R)-1-benzyl-2-hydroxy-3-[isobutyl-(2-methylamino-benzothiazole-6-sulfonyl)-amino]-propyl}-carbamic acid(S)(tetrahydro-furan-3-yl)ester]
- Cmax [9, 13]: 1763 ng/mL
- Cmax ([9]; or, DMSO, results normalized to 10 mpk): 1139 ng/mL
- Cmax [9, 14]: 1315 ng/mL
- Cmax ([11]; PEG400 - 2 animals): 61 ng/mL
- Cmax ([11]; PEG400 - 4 animals): 184 ng/mL

Compound: CNc1nc2ccc(S(=O)(=O)N(CC(C)C)C[C@@H](O)[C@H](Cc3ccccc3)NC(=O)O[C@H]3CCOC3)cc2s1.O=C(O)C(F)(F)F [Compound 22, {(1S,2R)-1-benzyl-2-hydroxy-3-[isobutyl-(2-methylamino-benzothiazole-6-sulfonyl)-amino]-propyl}-carbamic acid(S)(tetrahydro-furan-3-yl)ester trifluoroacetate]
- WT (pEC50) [1]: 8.84
- fold resistance Strain A [2]: 81.3
- pEC50 Strain A [2]: 6.93
- fold resistance Strain B [3]: 10.2
- pEC50 Strain B [3]: 7.83
- fold resistance Strain F [4]: 549.5
- pEC50 Strain F [4]: 6.1
- fold resistance Strain E [7]: 3.0
- pEC50 Strain E [7]: 8.36
- fold resistance Strain D [8]: 11.5
- pEC50 Strain D [8]: 7.78
- fold resistance Strain C [5]: 4.5
- pEC50 Strain C [5]: 8.19
- Tox (pCC50) [6]: <4

Compound: CNc1nc2ccc(S(=O)(=O)N(CC(C)C)C[C@@H](O)[C@H](Cc3ccccc3)NC(=O)COc3c(C)cc(CN)cc3C)cc2s1 [Compound 25, 2-(4-aminomethyl-2,6-dimethyl-phenoxy)-N-{(1S,2R)-1-benzyl-2-hydroxy-3-[isobutyl-(2-methylamino-benzothiazole-6-sulfonyl)-amino]-propyl}-acetamide]
- Cmax [9, 12]: 453 ng/mL
- EC50 [1]: 0.00407 µM
- fold resistance Strain A [2]: 10.7
- EC50 [2]: 0.0437 µM
- fold resistance Strain B [3]: 4.9
- EC50 [3]: 0.02 µM
- fold resistance Strain F [4]: 117.5
- EC50 [4]: 0.479 µM
- fold resistance Strain E [7]: 4.3
- EC50 [7]: 0.0174 µM
- fold resistance Strain D [8]: 10.0
- EC50 [8]: 0.0407 µM
- fold resistance Strain C [5]: 4.4
- EC50 [5]: 0.0178 µM
- CC50 at 5 days [10]: 14.1 µM

Compound: {(1S,2R)-3-[(2-amino-benzothiazole-6-sulfonyl)-isobutyl-amino]-1-benzyl-2-hydroxypropyl}-carbamic acid(3R,3aS,6aR)-hexahydro-furo[2,3-b]furan-3-yl ester [Compound 2]
- Cmax [9, 13]: 427 ng/mL
- Cmax [9, 14]: 52 ng/mL
- WT (pEC50) [1]: 8.18
- fold resistance Strain A [2]: 0.3
- pEC50 Strain A [2]: 8.68
- fold resistance Strain B [3]: 0.4
- pEC50 Strain B [3]: 8.59
- fold resistance Strain F [4]: 0.5
- pEC50 Strain F [4]: 8.45
- fold resistance Strain E [7]: 0.5
- pEC50 Strain E [7]: 8.50
- fold resistance Strain D [8]: 0.3
- pEC50 Strain D [8]: 8.69
- fold resistance Strain C [5]: 0.4
- pEC50 Strain C [5]: 8.54
- Tox (pCC50) ([6]; mock-infected MT4 cells, pCC50): 4.07
